Measurements reported in patent publication US20150133493A1, “COUMARIN-BASED COMPOUNDS FOR THE TREATMENT OF ALZHEIMER'S DISEASE AND CANCER” (Sloan-Kettering Institute for Cancer Research, priority 2008, published 2015).
“Also recorded” adds a separate entry of the source.

Legend:
[1] = tested on: HEK-293 cells transfected with ΔE Notch construct; assay: Cell-based Notch cleavage assay (NICD production); details: HEK-293, ΔE Notch, 24 hrs; Western blot; CS-1 up to 30 μM
Procedure: FIG. 3. Cellular evaluation of the coumarin-dimer CS-1 and its selective inhibition of Aβ42. Compounds were incubated with the APPsw-N2A mouse neuroblastoma cells for 24 hours and media were analyzed by biotinylated 4G8 and ruthenylated antibodies specific for each respective cleavage product. […] (d) Immunoprecipitation mass spectrometry analysis of CS-1 effect on secreted β-amyloid species. Aβ peptides were immunoprecipitated using 4G8 antibody and isolated with Protein G+/A agarose beads. Samples were analyzed by MALDI-MS. Samples shown are representative and each data point was performed in triplicate. (e) Cell-based Notch cleavage assay. HEK-293 cells were transfected with ΔE Notch construct and then Compound E and CS-1 were evaluated for their ability to inhibit γ-secretase-mediated Notch intracellular domain production. […] The generated AICD and APP-CTFs were detected by Western Blotting using APPc antibody. […]
We next determined the ability of CS-1 to suppress cellular γ-secretase activity for Notch1 cleavage. […]
ΔE Notch or empty pcDNA3.1(−) construct was transfected into HEK-293 cells in a 6-well format using Lipofectamine reagent, following manufacturer's instructions. […] Samples were then centrifuged at 13,000 rpm's at 4° C. and the supernatent was collected and analyzed by Western analysis using either anti-Myc antibody at a 1:1000 dilution or anti-NICD-1 SM320 at a 1:500 dilution.

γ-secretase active site = target: T1, γ-secretase active site (Homo sapiens, UniProt P49768); assay: Photolabeling of the γ-secretase active site (PS1-NTF) in HeLa membrane with probes L646, GY4, JC8, L505; format: binding; details: L458 and Compound E at 2 μM, CS-1 up to 100 μM
T1 construct: endogenous in cells; host or cells: HeLa membrane
Procedure: FIG. 4. Kinetic analysis of allosteric GSIs and evaluation of their effect on the γ-secretase active site architecture. (a) Kinetic analysis of CS1 was performed using our modified version of a previously reported in vitro γ-secretase activity assay. The inhibition kinetics were analyzed by using a non-linear curve fit with the Michaelis-Menten equation. Upper right inset: we replotted slopes against the inhibitor concentrations after performing double reciprocal conversion. (b) Schematic representation of the allosteric binding of the di-coumarin compounds to γ-secretase. This binding ultimately causes an alteration at the active site of γ-secretase. Black rectangle represents the coumarin-dimer compound. (c) The binding of L458 to the active site of γ-secretase and its interaction at various subpockets within the enzyme. (d) Chemical structure of the four photoaffinity probes utilized in the characterization of CS-1 effect on active site architecture. Hydroxyethylamine and benzophenone moieties are marked by blue and red, respectively. (e) Evaluation of CS-1 effect on the photolabeling of four probes. […] (f) Evaluation of CS-2 effect on the active site photolabeling by L505 and GY4. (g) Effect of Compound E on active site photolabling. […] Blotting was performed for PS1-NTF. The photolabeling blots are representative and were performed in triplicate.
We hypothesized that the allosteric binding of the di-coumarin compounds alters the conformation of the active site of γ-secretase and thereby preferentially affects the Aβ42 site cleavage (FIG. 4b). This raised the technical issue of how to probe the contours of the enzymatic active site. Although the structure of γ-secretase has been determined by cryoelectron microscopy (23), the resolution attained is not sufficient to investigate subtle changes within the active site. Consequently, we developed a series of active-site directed inhibitors that incorporate a photoreactive benzophenone entity into varied positions. Using these photoreactive probes, we assessed the effect of the di-coumarin inhibitor binding on the active site of γ-secretase. Since the efficiency of photoinsertion depends on the orientation of the probe and the proximity of residues within the active site, conformational change of the active site can alter the orientation of the probe and contact residues and lead to altered cross-linking efficiencies. Therefore, multiple photoactivatable, active-site directed GSIs will provide a practical approach to evaluate the changes within the active site following allosteric di-coumarin binding.
L458 contains a hydroxyethylamine transition-state isostere that mimics the tetrahedral intermediate of aspartyl proteases and this moiety hydrogen bonds with the catalytic aspartate residues of γ-secretase (20). According to the nomenclature of Schechter and Berger (24), L458 contains the P2, P1, P1′, P2′ and P3′ residues that putatively bind to the S2, S1, S1′, S2′ and S3′ subsites, respectively, within the active site of γ-secretase (FIG. 4c). We have developed a series of biotinylated, photoactivatable inhibitors based on the core structure of L458 that allow us to probe the sub-pockets of the γ-secretase active site (3, 25-26). These inhibitors all have an individual benzophenone group incorporated into L458 at either the P2, P1, P1′, or P3′ position and are referred to as L646, GY4, JC8 and L505 (FIG. 4d). Each of these inhibitors interacts and labels the S2, S1, S1′, and S3′ subsites, respectively, within the γ-secretase complex (FIG. 4c-d).
HeLa membrane was incubated with CHAPSO detergent and photoaffinity probe in the presence or absence of excess L458 or CS-1. Labeled presenilin was isolated using streptavidin beads, separated by SDS-PAGE and subsequently western blotted using anti-PS1-NTF antibodies. Again, presenilin is believed to contain the active site of γ-secretase, therefore we examined PS1 photolabeling. […]

C[C@H](NC(=O)Cc1cc(F)cc(F)c1)C(=O)N[C@H]1N=C(c2ccccc2)c2ccccc2N(C)C1=O [Compound E]
effect on Notch intracellular domain (NICD) production [1]: able to prevent production of NICD; also recorded: effectively blocked all production
effect on JC-8 photolabeling of PS1-NTF (S1′ subsite) (γ-secretase active site): completely suppressed; also recorded: nonselectively blocked
effect on L646 photolabeling of PS1-NTF (S2 subsite) (γ-secretase active site): completely suppressed; also recorded: nonselectively blocked
effect on GY-4 photolabeling of PS1-NTF (S1 subsite) (γ-secretase active site; CS-2 at 100 μM): completely suppressed; also recorded: nonselectively blocked
effect on L505 photolabeling of PS1-NTF (S3′ subsite) (γ-secretase active site; CS-2 at 100 μM): completely suppressed; also recorded: nonselectively blocked
